What was measured:
Settings in all cases: 48 h
[1] = tested on: NOMO1; assay: cell viability relative to DMSO control; higher = less cytotoxic
Outline: (§1)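 NOMO1 or SEM (500 cells/well) or P12-Ichikawa (1000 cells/well) leukemia cells were adapted for at least four passages in each medium. They were seeded in 1536-well plates (5 μl) and pin-dosed with library compounds in DMSO over an 11-point threefold series, 47 μM to 0.79 nM. CellTiter-Glo One luminescence was read after 48 h at 37°C. Viability is the per-plate percentage relative to DMSO wells, with cell-free wells as background.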

[2] = tested on: P12-Ichikawa; assay: as above
Outline: as §1

[3] = tested on: SEM cells; assay: as above
Outline: as §1

[4] = tested on: NOMO1; assay: AUC of viability dose-response curve (% viability x log10 dose units); higher = less sensitive
Outline: (§2)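 Leukemia cells adapted to each medium (500 or 1000 cells/well, 1536-well plates) were exposed to library compounds in DMSO for 48 h at 37°C at 11 threefold doses, 47 μM to 0.79 nM. Luminescence by CellTiter-Glo One was normalised per plate to DMSO and cell-free wells, then fitted with a four-parameter log-logistic curve on log10 dose. Curves above full viability were scaled and quality-control failures removed before area under the curve was integrated by trapezoidal rule.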

[5] = tested on: P12-Ichikawa; assay: as above
Outline: as §2

[6] = tested on: SEM cells; assay: as above
Outline: as §2

C[C@H](CCC(=O)O)[C@H]1CCC2C3C[C@H](O)[C@@H]4C[C@H](O)CC[C@]4(C)C3CC[C@@]21C (some centres not stated)
cell viability [%]
Settings	[1]	[2]	[3]
HPLM + 10% dialyzed FBS, 0.000781 µM	112	106	–
HPLM + 10% dialyzed FBS, 0.00234 µM	123	113	–
HPLM + 10% dialyzed FBS, 0.00702 µM	139	101	–
HPLM + 10% dialyzed FBS, 0.0211 µM	133	112	–
HPLM + 10% dialyzed FBS, 0.0632 µM	119	126	–
HPLM + 10% dialyzed FBS, 0.19 µM	121	115	–
HPLM + 10% dialyzed FBS, 0.569 µM	97.6	97.3	–
HPLM + 10% dialyzed FBS, 1.71 µM	104	93.7	–
HPLM + 10% dialyzed FBS, 5.12 µM	114	107	–
HPLM + 10% dialyzed FBS, 15.4 µM	123	96.8	–
HPLM + 10% dialyzed FBS, 46.1 µM	110	108	–
RPMI 5 mM glucose + 10% FBS, 0.000781 µM	113	105	109
RPMI 5 mM glucose + 10% FBS, 0.00234 µM	106	126	122
RPMI 5 mM glucose + 10% FBS, 0.00702 µM	121	120	129
RPMI 5 mM glucose + 10% FBS, 0.0211 µM	119	114	131
RPMI 5 mM glucose + 10% FBS, 0.0632 µM	119	117	135
RPMI 5 mM glucose + 10% FBS, 0.19 µM	116	108	102
RPMI 5 mM glucose + 10% FBS, 0.569 µM	96.7	105	103
RPMI 5 mM glucose + 10% FBS, 1.71 µM	106	105	117
RPMI 5 mM glucose + 10% FBS, 5.12 µM	113	102	123
RPMI 5 mM glucose + 10% FBS, 15.4 µM	108	104	107
RPMI 5 mM glucose + 10% FBS, 46.1 µM	103	105	108
RPMI 5 mM glucose + 10% dialyzed FBS, 0.000781 µM	102	98.7	–
RPMI 5 mM glucose + 10% dialyzed FBS, 0.00234 µM	126	108	–
RPMI 5 mM glucose + 10% dialyzed FBS, 0.00702 µM	118	103	–
RPMI 5 mM glucose + 10% dialyzed FBS, 0.0211 µM	108	103	–
RPMI 5 mM glucose + 10% dialyzed FBS, 0.0632 µM	122	108	–
RPMI 5 mM glucose + 10% dialyzed FBS, 0.19 µM	109	97.5	–
RPMI 5 mM glucose + 10% dialyzed FBS, 0.569 µM	107	96.9	–
RPMI 5 mM glucose + 10% dialyzed FBS, 1.71 µM	94.7	98.9	–
RPMI 5 mM glucose + 10% dialyzed FBS, 5.12 µM	116	105	–
RPMI 5 mM glucose + 10% dialyzed FBS, 15.4 µM	105	90.4	–
RPMI 5 mM glucose + 10% dialyzed FBS, 46.1 µM	110	94.9	–

AUC of viability dose-response curve
Settings	[4]	[5]	[6]
HPLM + 10% dialyzed FBS	449	454	452
RPMI 5 mM glucose + 10% FBS	458	450	452
RPMI 5 mM glucose + 10% dialyzed FBS	459	463	469

Cc1cc(OCCC[S+](C)(=O)[O-])cc(C)c1-c1cccc(COc2ccc3c(c2)OC[C@H]3CC(=O)O)c1
cell viability [%]
Settings	[1]	[2]	[3]
HPLM + 10% dialyzed FBS, 0.000781 µM	93.7	100	104
HPLM + 10% dialyzed FBS, 0.00234 µM	112	104	113
HPLM + 10% dialyzed FBS, 0.00702 µM	98.7	98.1	110
HPLM + 10% dialyzed FBS, 0.0211 µM	91.3	108	104
HPLM + 10% dialyzed FBS, 0.0632 µM	108	97	107
HPLM + 10% dialyzed FBS, 0.19 µM	97.8	94.8	101
HPLM + 10% dialyzed FBS, 0.569 µM	103	97.4	96.5
HPLM + 10% dialyzed FBS, 1.71 µM	89.9	93.6	99.9
HPLM + 10% dialyzed FBS, 5.12 µM	106	91.6	98.3
HPLM + 10% dialyzed FBS, 15.4 µM	92.8	94.2	112
HPLM + 10% dialyzed FBS, 46.1 µM	67.1	68.6	91.1
RPMI 5 mM glucose + 10% FBS, 0.000781 µM	96.9	105	105
RPMI 5 mM glucose + 10% FBS, 0.00234 µM	95	106	104
RPMI 5 mM glucose + 10% FBS, 0.00702 µM	99.2	110	105
RPMI 5 mM glucose + 10% FBS, 0.0211 µM	102	103	114
RPMI 5 mM glucose + 10% FBS, 0.0632 µM	92.4	101	103
RPMI 5 mM glucose + 10% FBS, 0.19 µM	99.2	100	91.8
RPMI 5 mM glucose + 10% FBS, 0.569 µM	107	98.1	106
RPMI 5 mM glucose + 10% FBS, 1.71 µM	100	84.2	98.4
RPMI 5 mM glucose + 10% FBS, 5.12 µM	98	84.9	85.7
RPMI 5 mM glucose + 10% FBS, 15.4 µM	90.6	86.8	98.6
RPMI 5 mM glucose + 10% FBS, 46.1 µM	57.3	49.3	63.1
RPMI 5 mM glucose + 10% dialyzed FBS, 0.000781 µM	99.2	93.1	97.7
RPMI 5 mM glucose + 10% dialyzed FBS, 0.00234 µM	96.7	96.2	132
RPMI 5 mM glucose + 10% dialyzed FBS, 0.00702 µM	95.9	102	109
RPMI 5 mM glucose + 10% dialyzed FBS, 0.0211 µM	98.4	98.5	118
RPMI 5 mM glucose + 10% dialyzed FBS, 0.0632 µM	96.1	96.1	95.5
RPMI 5 mM glucose + 10% dialyzed FBS, 0.19 µM	92.6	97.7	108
RPMI 5 mM glucose + 10% dialyzed FBS, 0.569 µM	93.7	91.1	109
RPMI 5 mM glucose + 10% dialyzed FBS, 1.71 µM	86.4	84.3	105
RPMI 5 mM glucose + 10% dialyzed FBS, 5.12 µM	85.3	84.7	93.1
RPMI 5 mM glucose + 10% dialyzed FBS, 15.4 µM	89.3	82.4	105
RPMI 5 mM glucose + 10% dialyzed FBS, 46.1 µM	47.1	46.1	65

AUC of viability dose-response curve
Settings	[4]	[5]	[6]
HPLM + 10% dialyzed FBS	466	460	454
RPMI 5 mM glucose + 10% FBS	458	428	448
RPMI 5 mM glucose + 10% dialyzed FBS	434	430	445

OC[C@H]1O[C@H](C[C@@H]1O)N2\C=C(F)/C(=O)NC2=O
cell viability [%]
Settings	[1]	[2]	[3]
HPLM + 10% dialyzed FBS, 0.000781 µM	115	123	124
HPLM + 10% dialyzed FBS, 0.00234 µM	120	109	113
HPLM + 10% dialyzed FBS, 0.00702 µM	120	110	120
HPLM + 10% dialyzed FBS, 0.0211 µM	70.9	92.4	86.7
HPLM + 10% dialyzed FBS, 0.0632 µM	51.9	78.1	55.3
HPLM + 10% dialyzed FBS, 0.19 µM	46.8	47.9	47.7
HPLM + 10% dialyzed FBS, 0.569 µM	52.1	33.3	46.1
HPLM + 10% dialyzed FBS, 1.71 µM	50.4	28.5	44.4
HPLM + 10% dialyzed FBS, 5.12 µM	35.5	20.6	35.1
HPLM + 10% dialyzed FBS, 15.4 µM	27.8	22.7	31.5
HPLM + 10% dialyzed FBS, 46.1 µM	17.9	11	12.1
RPMI 5 mM glucose + 10% FBS, 0.000781 µM	121	115	119
RPMI 5 mM glucose + 10% FBS, 0.00234 µM	118	104	115
RPMI 5 mM glucose + 10% FBS, 0.00702 µM	114	101	121
RPMI 5 mM glucose + 10% FBS, 0.0211 µM	118	106	121
RPMI 5 mM glucose + 10% FBS, 0.0632 µM	120	92.2	130
RPMI 5 mM glucose + 10% FBS, 0.19 µM	89.9	55.2	102
RPMI 5 mM glucose + 10% FBS, 0.569 µM	82.6	51.6	86.9
RPMI 5 mM glucose + 10% FBS, 1.71 µM	72.7	38.1	80.3
RPMI 5 mM glucose + 10% FBS, 5.12 µM	44.1	25.6	33.9
RPMI 5 mM glucose + 10% FBS, 15.4 µM	39.1	33.6	40.6
RPMI 5 mM glucose + 10% FBS, 46.1 µM	30.2	30.1	16.3
RPMI 5 mM glucose + 10% dialyzed FBS, 0.000781 µM	140	124	110
RPMI 5 mM glucose + 10% dialyzed FBS, 0.00234 µM	119	109	92.8
RPMI 5 mM glucose + 10% dialyzed FBS, 0.00702 µM	106	116	88.5
RPMI 5 mM glucose + 10% dialyzed FBS, 0.0211 µM	79.2	109	40.5
RPMI 5 mM glucose + 10% dialyzed FBS, 0.0632 µM	63.9	76.9	35.1
RPMI 5 mM glucose + 10% dialyzed FBS, 0.19 µM	46.4	45.7	26.5
RPMI 5 mM glucose + 10% dialyzed FBS, 0.569 µM	47	34.3	31.1
RPMI 5 mM glucose + 10% dialyzed FBS, 1.71 µM	34.4	30.3	25.6
RPMI 5 mM glucose + 10% dialyzed FBS, 5.12 µM	24.6	21.8	23.3
RPMI 5 mM glucose + 10% dialyzed FBS, 15.4 µM	27.6	27.6	18.1
RPMI 5 mM glucose + 10% dialyzed FBS, 46.1 µM	20.1	19.4	10.8

AUC of viability dose-response curve
Settings	[4]	[5]	[6]
HPLM + 10% dialyzed FBS	250	244	243
RPMI 5 mM glucose + 10% FBS	347	298	352
RPMI 5 mM glucose + 10% dialyzed FBS	214	259	198
